Measurements as given in patent US20260274798A1, “PENTAMIDINE ANALOGUE POLYMORPHS, FORMULATIONS, AND METHODS THEREOF” (AURANSA INC., priority 2023, published 2026).
Entries after “also recorded” stand apart in the source; their conditions may differ.

Columns and labels:
Assay type in all cases: physicochemical
[1] = Dynamic vapour sorption (DVS) with post-DVS XRPD; conditions: for form of recovered solid by post-DVS XRPD: after DVS cycles; for form conversion during DVS / weight loss on form conversion during DVS: at 50% RH
Procedure: Approximately, 10-20 mg of sample was placed into a mesh vapour sorption balance pan and loaded into a DVS Intrinsic dynamic vapour sorption balance by Surface Measurement Systems. The sample was subjected to a ramping profile from 40-90% relative humidity (RH) at 10% increments, maintaining the sample at each step until a stable weight had been achieved (dm/dt 0.004%, minimum step length 30 minutes, maximum step length 500 minutes) at 25° C. After completion of the sorption cycle, the sample was dried using the same procedure to 0% RH and then a second sorption cycle back to 40% RH. Two cycles were performed. The weight change during the sorption/desorption cycles were plotted, allowing for the hygroscopic nature of the sample to be determined. XRPD analysis was then carried out on any solid retained.

[2] = Thermodynamic solubility in water and a pH 7.4 phosphate buffer; conditions: slurry agitated at ambient ca. 24 hours, HPLC; for solubility: diacetate; for solubility at 24 h: thermodynamic from solid
Procedure: (§1) 25.6 mL of 2-propanol was added to the lyophilized Compound A diacetate salt to form a slurry. The slurry was then temperature cycled between ambient and 40° C. in 4 hour cycles with agitation for ca. 24 hours. The slurry was then filtered and the isolated solids collected into a scintillation vial. A subsample was analyzed by XRPD and the vial was left uncapped to allow the solids to […] at ambient for ca. 24 hours. The material was then re-analyzed by XRPD post-drying and fully characterized using the following techniques: TG/DSC, DSC, DVS with post-DVS XRPD analysis, PLM, FT-IR, ^1H NMR, Purity by HPLC, TG/DSC with post TG/DSC XRPD analysis, and 7 Day Stability Assessment (ca. 10 mg of the material was stored at 40° C./75% RH. 80° C. and ambient light and humidity for 1 week. The solids were then analyzed by XRPD and purity obtained by HPLC). Thermodynamic solubility in water and a pH 7.4 phosphate buffer (The appropriate media was added in 100 μL aliquots to ca. 20 mg of the material to form a slurry. The samples were then sealed and agitated at ambient for ca. 24 hours before being centrifuge filtered. The isolated solids were analyzed by XRPD and the concentration of the mother liquors determined by HPLC).
The material appears highly insoluble in the phosphate buffer with all Forms having a solubility of 0.3 mg/mL except from Form 2 which has a solubility of 0.2 mg/mL.

[3] = 7 Day Stability Assessment (XRPD form and HPLC purity after storage); conditions: diacetate; for one-week stability: form by XRPD: 1 week (Form 1: 2 and 7 days)
Procedure: as §1

[4] = Competitive slurry experiments of Forms 1, 3, 8 and 9
Procedure: Approximately 5 mg of Compound A diacetate salt Forms 1, 3, 8 and 9 were combined into 8×4 mL vials. The appropriate solvent was added to form a slurry and the samples were shaken at ambient or 60° C. for ca. 48 hours. The samples were then removed from shaking and centrifuge filtered. […] The solids were recovered from the XRPD plate and placed back on to shake as before for an additional 3 days before being re-analyzed by XRPD. […]

[5] = Approximate solvent solubility screen of Compound A diacetate salt in 18 solvent systems; conditions: thermodynamic from solid
Procedure: Approximately 380 mg of Form 1 was dissolved in 35 mL of methanol and rotary evaporated. […] A sub-sample was taken for further characterization (TG/DSC, ^1H NMR and PLM). The crystalline material isolated post rotary-evaporation was re-dissolved in 27 mL of water. The solution remained slightly turbid so was syringe filtered to give a clear solution which was split equally among 18 vials to give approximately 20 mg of material per vial. The samples were then frozen at −50° C. before being lyophilized for ca. 72 hours. […] This material was used as input for the solvent solubility screen described below.
The solubility of Compound A diacetate salt was tested in 18 solvent systems. The appropriate solvent was added in 100 μL aliquots to approximately 20 mg of the lyophilized Compound A diacetate salt. Between each addition, the mixture was checked for dissolution and where no dissolution was apparent, the mixture was heated to ca. 40° C. and checked again. This procedure was continued until dissolution was observed or until 100 volumes of solvent had been added.
The solids were then isolated via centrifugal filtration and analyzed by XRPD. If the samples fully dissolved on addition of solvent (methanol and water only), they were uncapped and left to evaporate at ambient. Any solids recovered post-evaporation were then analyzed by XRPD.

[6] = ambient temperature and humidity
[7] = Ethyl Acetate, 2000 μL, Ambient

## CC(=O)O.CC(=O)O.N=C(N)c1ccc(OCCCCCOc2ccc(C(=N)N)nc2)cc1 [Form 1, 5-((5-(4-carbamimidoylphenoxy)pentyl)oxy)picolinimidamide diacetate]
[1]; DVS, 25° C., diacetate
  hygroscopicity by DVS: slightly hygroscopic
[1]; XRPD post-DVS
  DVS: form post-DVS: water) at 90% RH. No change
[1]; 25° C., diacetate
  form of recovered solid by post-DVS XRPD: remained as the received pattern 1; also recorded: No change in form
[1]; hygroscopicity / form change during DVS cycle, diacetate
  DVS: Slightly hygroscopic
[2]; pH 7.4 Phosphate Buffer
  solubility: 300 µg/mL
[2]; water
  solubility at 24 h: 49500 µg/mL
[3]; 40° C./75% RH
  one-week stability: form by XRPD: no change in form
[3]; 80° C.
  one-week stability: form by XRPD: no change in form
[3]; [6]
  one-week stability: form by XRPD: no change in form
[3]; form by XRPD after storage at 40° C./75% RH, ambient or 80° C.
  1 Week Stability: No change in form by XRPD

## CC(=O)O.CC(=O)O.N=C(N)c1ccc(OCCCCCOc2ccc(C(=N)N)nc2)cc1 [Form 8, 5-((5-(4-carbamimidoylphenoxy)pentyl)oxy)picolinimidamide diacetate]
[1]; 25° C., diacetate
  form of recovered solid by post-DVS XRPD: conversion of Form 8 to Form 1
  form conversion during DVS: desolvate and convert to Form 1
  weight loss on form conversion during DVS: 8.2 wt. %
[1]; at 90% RH, diacetate
  DVS mass increase: hygroscopic with a 1.6% mass
[2]; Water
  solubility: 38700 µg/mL
[2]; pH 7.4 Phosphate Buffer
  solubility: 300 µg/mL
[3]; 40° C./75% RH
  one-week stability: form by XRPD: convert to Form 1
[3]; 80° C.
  one-week stability: form by XRPD: no change in form
[3]; [6]
  one-week stability: form by XRPD: convert to Form 1; also recorded: partial conversion to Form 1

## CC(=O)O.CC(=O)O.N=C(N)c1ccc(OCCCCCOc2ccc(C(=N)N)nc2)cc1 [Form 3, 5-((5-(4-carbamimidoylphenoxy)pentyl)oxy)picolinimidamide diacetate]
[1]; 25° C., diacetate
  form of recovered solid by post-DVS XRPD: conversion to Form 9
  form conversion during DVS: convert to the hydrated Form 9; also recorded: convert to Form 9 (dihydrate)
  weight loss on form conversion during DVS: approximately 4 wt. %
[2]; Water
  solubility: 38500 µg/mL
[2]; pH 7.4 Phosphate Buffer
  solubility: 200 µg/mL
[3]; 40° C./75% RH
  one-week stability: form by XRPD: convert to Form 1
[3]; 80° C.
  one-week stability: form by XRPD: no change
[3]; [6]
  one-week stability: form by XRPD: convert to Form 1

## CC(=O)O.CC(=O)O.N=C(N)c1ccc(OCCCCCOc2ccc(C(=N)N)nc2)cc1
[4]; Acetone, 1000 μL, 60° C.
  XRPD Pattern (2 Days): All patterns
  XRPD Pattern (5 Days): All patterns
[4]; Acetone, 2000 μL, Ambient
  XRPD Pattern (2 Days): All patterns
  XRPD Pattern (5 Days): All patterns
[4]; DCM, 1000 μL, 60° C.
  XRPD Pattern (2 Days): All patterns
  XRPD Pattern (5 Days): All patterns
[4]; DCM, 2000 μL, Ambient
  XRPD Pattern (2 Days): All patterns
  XRPD Pattern (5 Days): All patterns
[4]; Ethanol, 1000 μL, 60° C.
  XRPD Pattern (2 Days): 8 + 1
[4]; Ethanol, 2000 μL, Ambient
  XRPD Pattern (2 Days): 8 + 1
  XRPD Pattern (5 Days): 6
[4]; [7]
  XRPD Pattern (2 Days): All patterns
  XRPD Pattern (5 Days): All patterns
[4]; Etyl Acetate, 1000 μL, 60° C.
  XRPD Pattern (2 Days): All patterns
  XRPD Pattern (5 Days): 1 + 8

## CC(=O)O.CC(=O)O.N=C(N)c1ccc(OCCCCCOc2ccc(C(=N)N)nc2)cc1 [Form 2, 5-((5-(4-carbamimidoylphenoxy)pentyl)oxy)picolinimidamide diacetate]
[2]; phosphate buffer, pH 7.4, aqueous buffer, pH 7.4 Phosphate Buffer
  solubility at 24 h: 200 µg/mL

## CC(=O)O.CC(=O)O.N=C(N)c1ccc(OCCCCCOc2ccc(C(=N)N)nc2)cc1 [Compound A diacetate salt, 5-((5-(4-carbamimidoylphenoxy)pentyl)oxy)picolinimidamide diacetate]
[5]; all solvents investigated except methanol and water, organic solvent or mixture, read-out: solubility
  solubility: < 5000 µg/mL
[5]; organic solvent or mixture, 1,4-Dioxane, lyophilized material, ambient to ca. 40° C., read-out: Approximate Solvent Solubility
  solubility: ≤ 5000 µg/mL
[5]; organic solvent or mixture, 2-Propanol, lyophilized material, ambient to ca. 40° C., read-out: Approximate Solvent Solubility
  solubility: ≤ 5000 µg/mL
[5]; organic solvent or mixture, 2-methyl THF, lyophilized material, ambient to ca. 40° C., read-out: Approximate Solvent Solubility
  solubility: ≤ 5000 µg/mL
[5]; organic solvent or mixture, Acetone, lyophilized material, ambient to ca. 40° C., read-out: Approximate Solvent Solubility
  solubility: ≤ 5000 µg/mL
[5]; organic solvent or mixture, Acetonitrile, lyophilized material, ambient to ca. 40° C., read-out: Approximate Solvent Solubility
  solubility: ≤ 5000 µg/mL
[5]; organic solvent or mixture, Dichloromethane, lyophilized material, ambient to ca. 40° C., read-out: Approximate Solvent Solubility
  solubility: ≤ 5000 µg/mL
[5]; organic solvent or mixture, Dimethylsulfoxide, lyophilized material, ambient to ca. 40° C., read-out: Approximate Solvent Solubility
  solubility: ≤ 5000 µg/mL
[5]; organic solvent or mixture, Ethanol, lyophilized material, ambient to ca. 40° C., read-out: Approximate Solvent Solubility
  solubility: ≤ 5000 µg/mL
[5]; organic solvent or mixture, Ethyl Acetate, lyophilized material, ambient to ca. 40° C., read-out: Approximate Solvent Solubility
  solubility: ≤ 5000 µg/mL
[5]; organic solvent or mixture, Isopropyl Acetate, lyophilized material, ambient to ca. 40° C., read-out: Approximate Solvent Solubility
  solubility: ≤ 5000 µg/mL
[5]; organic solvent or mixture, Methanol, lyophilized material, ambient to ca. 40° C., read-out: Approximate Solvent Solubility
  solubility: 20000 µg/mL
[5]; organic solvent or mixture, Methylethyl Ketone, lyophilized material, ambient to ca. 40° C., read-out: Approximate Solvent Solubility
  solubility: ≤ 5000 µg/mL
[5]; organic solvent or mixture, N,N′-Dimethylacetamide, lyophilized material, ambient to ca. 40° C., read-out: Approximate Solvent Solubility
  solubility: ≤ 5000 µg/mL
[5]; organic solvent or mixture, N,N′-Dimethylformamide, lyophilized material, ambient to ca. 40° C., read-out: Approximate Solvent Solubility
  solubility: ≤ 5000 µg/mL
[5]; organic solvent or mixture, N-Methylpyrrolidone, lyophilized material, ambient to ca. 40° C., read-out: Approximate Solvent Solubility
  solubility: ≤ 5000 µg/mL
[5]; organic solvent or mixture, Tetrahydrofuran, lyophilized material, ambient to ca. 40° C., read-out: Approximate Solvent Solubility
  solubility: ≤ 5000 µg/mL
[5]; organic solvent or mixture, Toluene, lyophilized material, ambient to ca. 40° C., read-out: Approximate Solvent Solubility
  solubility: ≤ 5000 µg/mL
[5]; Water, lyophilized material, ambient to ca. 40° C., read-out: Approximate Solvent Solubility
  solubility: 50000 µg/mL
